Type in all cases: cell-based
Experiment [1] concerns P. aeruginosa MP-3. Description: Broth dilution MIC determination (CLSI), P. aeruginosa MP-3. The following applies: Pseudomonas aeruginosa, MP3; strain MP-3, broth dilution. In general terms: In broth dilution the organism is exposed to a series of concentrations in liquid medium.
Experiment [2] concerns A. baumannii MP-15. Description: Broth dilution MIC determination (CLSI), A. baumannii MP-15. The following applies: Acinetobacter baumannii, MP15; strain MP-15, broth dilution; read-out: MIC A. baumanii MP-15.
The test system of experiment [3] is K. pneumoniae MP-648. The experiment in a line: Broth dilution MIC determination (CLSI), K. pneumoniae MP-648. The following applies: Klebsiella pneumoniae, MP648; strain MP-648, broth dilution.
The test system of experiment [4] is E. coli MP-4. Description: Broth dilution MIC determination (CLSI), E. coli MP-4. The following applies: Escherichia coli, MP4; strain MP-4, broth dilution; read-out: MIC E. coli MP-4.
The test system of experiment [5] is K. pneumoniae MP-546. Description: Broth dilution MIC determination (CLSI), K. pneumoniae MP-546. The following applies: Klebsiella pneumoniae, MP546; strain MP-546, broth dilution.
Experiment [6] has as its system S. aureus MP-12. Description: Broth dilution MIC determination (CLSI), S. aureus MP-12. The conditions noted are these: Staphylococcus aureus, MP12; strain MP-12, broth dilution.

Converted amounts (≈) assume the structure as drawn.

Regarding `CO[C@]1(C)C[C@@H](C)CN(C)[C@H](C2CN(C(=O)[C@H]3CCNC3)C2)COC(=O)C(C)(C)C(=O)[C@H](C)[C@H]1O[C@@H]1O[C@H](C)C[C@H](N(C)C)[C@H]1O` [Compound 181, (3R,6R,8R,9R,10R)-9-(((2S,3R,4S,6R)-4-(dimethylamino)-3-hydroxy-6-methyltetrahydro-2H-pyran-2-yl)oxy)-8-methoxy-4,6,8,10,12,12-hexamethyl-3-(1-((S)-pyrrolidine-3-carbonyl)azetidin-3-yl)-1-oxa-4-azacyclotridecane-11,13-dione], the minimal inhibitory concentration (MIC) in experiment [1] is > 32 µg/mL; in experiment [2] it was > 32 µg/mL; in experiment [3], > 32 µg/mL; in experiment [4], 4 to 32 µg/mL (≈ 6.13 to 49 µM); in experiment [5], > 32 µg/mL; in experiment [6], 4 to 32 µg/mL (≈ 6.13 to 49 µM).
Turning to `CO[C@]1(C)C[C@@H](C)CN(C)[C@](C)(C2CCN(C(C)C)CC2)COC(=O)C(C)(C)C(=O)[C@H](C)[C@H]1O[C@@H]1O[C@H](C)C[C@H](N(C)C)[C@H]1O` [Compound 158, (3R,6R,8R,9R,10R)-9-(((2S,3R,4S,6R)-4-(dimethylamino)-3-hydroxy-6-methyltetrahydro-2H-pyran-2-yl)oxy)-3-(1-isopropylpiperidin-4-yl)-8-methoxy-3,4,6,8,10,12,12-heptamethyl-1-oxa-4-azacyclotridecane-11,13-dione], the minimal inhibitory concentration (MIC) in experiment [1] was > 32 µg/mL; in experiment [2], > 32 µg/mL; in experiment [3], < 4 µg/mL; in experiment [4], < 4 µg/mL; in experiment [5] it was < 4 µg/mL; in experiment [6], 4 to 32 µg/mL (≈ 6.25 to 50 µM).
Consider `CO[C@]1(C)C[C@@H](C)CN(C)[C@H]([C@H]2C[C@@H](N(C)C)C2)COC(=O)C(C)(C)C(=O)[C@H](C)[C@H]1O[C@@H]1O[C@H](C)C[C@H](N(C)C)[C@H]1O` [Compound 128, (3R,6R,8R,9R,10R)-9-(((2S,3R,4S,6R)-4-(dimethylamino)-3-hydroxy-6-methyltetrahydro-2H-pyran-2-yl)oxy)-3-((1s,3S)-3-(dimethylamino)cyclobutyl)-8-methoxy-4,6,8,10,12,12-hexamethyl-1-oxa-4-azacyclotridecane-11,13-dione], for which the MIC was > 32 µg/mL in experiment [1]; > 32 µg/mL in experiment [2]; 4 to 32 µg/mL (≈ 6.69 to 53.5 µM) in experiment [3]; < 4 µg/mL in experiment [4]; 4 to 32 µg/mL (≈ 6.69 to 53.5 µM) in experiment [5]; > 32 µg/mL in experiment [6].
Turning to `CO[C@]1(C)C[C@@H](C)CN(C)[C@H]([C@H]2C[C@H](N(C)C)C2)COC(=O)C(C)(C)C(=O)[C@H](C)[C@H]1O[C@@H]1O[C@H](C)C[C@H](N(C)C)[C@H]1O` [Compound 30, (3R,6R,8R,9R,10R)-9-(((2S,3R,4S,6R)-4-(dimethylamino)-3-hydroxy-6-methyltetrahydro-2H-pyran-2-yl)oxy)-3-((1r,3R)-3-(dimethylamino)cyclobutyl)-8-methoxy-4,6,8,10,12,12-hexamethyl-1-oxa-4-azacyclotridecane-11,13-dione], the MIC in experiment [1] is > 32 µg/mL; in experiment [2], > 32 µg/mL; in experiment [3], < 4 µg/mL; in experiment [4], < 4 µg/mL; in experiment [5] it was < 4 µg/mL; in experiment [6], 4 to 32 µg/mL (≈ 6.69 to 53.5 µM).
`CO[C@]1(C)C[C@@H](C)CN(C)[C@H](C2CN(CC(C)(C)C)C2)COC(=O)C(C)(C)C(=O)[C@H](C)[C@H]1O[C@@H]1O[C@H](C)C[C@H](N(C)C)[C@H]1O` [Compound 114, (3R,6R,8R,9R,10R)-9-(((2S,3R,4S,6R)-4-(dimethylamino)-3-hydroxy-6-methyltetrahydro-2H-pyran-2-yl)oxy)-8-methoxy-4,6,8,10,12,12-hexamethyl-3-(1-neopentylazetidin-3-yl)-1-oxa-4-azacyclotridecane-11,13-dione]: the minimum inhibitory concentration (MIC) in experiment [1] is > 32 µg/mL; in experiment [2] it was > 32 µg/mL; in experiment [3] it was 4 to 32 µg/mL (≈ 6.39 to 51.1 µM); in experiment [4], < 4 µg/mL; in experiment [5], < 4 µg/mL; in experiment [6], 4 to 32 µg/mL (≈ 6.39 to 51.1 µM).
Turning to `CO[C@]1(C)C[C@@H](C)CN(C)[C@H]([C@H]2C[C@H](N(C)CC(C)C)C2)COC(=O)C(C)(C)C(=O)[C@H](C)[C@H]1O[C@@H]1O[C@H](C)C[C@H](N(C)C)[C@H]1O` [Compound 131, (3R,6R,8R,9R,10R)-9-(((2S,3R,4S,6R)-4-(dimethylamino)-3-hydroxy-6-methyltetrahydro-2H-pyran-2-yl)oxy)-3-((1r,3R)-3-(isobutyl(methyl)amino)cyclobutyl)-8-methoxy-4,6,8,10,12,12-hexamethyl-1-oxa-4-azacyclotridecane-11,13-dione], the MIC in experiment [1] is > 32 µg/mL; in experiment [2], 4 to 32 µg/mL (≈ 6.25 to 50 µM); in experiment [3] it was < 4 µg/mL; in experiment [4], < 4 µg/mL; in experiment [5] it was < 4 µg/mL; in experiment [6], 4 to 32 µg/mL (≈ 6.25 to 50 µM).
Turning to `CO[C@]1(C)C[C@@H](C)CN(C)[C@@H](C2CCN(C[C@H]3COC(C)(C)O3)CC2)COC(=O)C(C)(C)C(=O)[C@H](C)[C@H]1O[C@@H]1O[C@H](C)C[C@H](N(C)C)[C@H]1O` [Compound 86, (3S,6R,8R,9R,10R)-3-(1-(((S)-2,2-dimethyl-1,3-dioxolan-4-yl)methyl)piperidin-4-yl)-9-(((2S,3R,4S,6R)-4-(dimethylamino)-3-hydroxy-6-methyltetrahydro-2H-pyran-2-yl)oxy)-8-methoxy-4,6,8,10,12,12-hexamethyl-1-oxa-4-azacyclotridecane-11,13-dione], the minimum inhibitory concentration (MIC) in experiment [1] was > 32 µg/mL; in experiment [2], > 32 µg/mL; in experiment [3], 4 to 32 µg/mL (≈ 5.73 to 45.8 µM); in experiment [4], < 4 µg/mL; in experiment [5] it was < 4 µg/mL; in experiment [6], 4 to 32 µg/mL (≈ 5.73 to 45.8 µM).
Turning to `CO[C@]1(C)C[C@@H](C)CN(C)[C@H](C2CN(Cc3ccn(C)n3)C2)COC(=O)C(C)(C)C(=O)[C@H](C)[C@H]1O[C@@H]1O[C@H](C)C[C@H](N(C)C)[C@H]1O` [Compound 16, (3R,6R,8R,9R,10R)-9-(((2S,3R,4S,6R)-4-(dimethylamino)-3-hydroxy-6-methyltetrahydro-2H-pyran-2-yl)oxy)-8-methoxy-4,6,8,10,12,12-hexamethyl-3-(1-((1-methyl-1H-pyrazol-3-yl)methyl)azetidin-3-yl)-1-oxa-4-azacyclotridecane-11,13-dione], the minimal inhibitory concentration (MIC) in experiment [1] is > 32 µg/mL; in experiment [2], > 32 µg/mL; in experiment [3], 4 to 32 µg/mL (≈ 6.16 to 49.2 µM); in experiment [4], < 4 µg/mL; in experiment [5], 4 to 32 µg/mL (≈ 6.16 to 49.2 µM); in experiment [6], 4 to 32 µg/mL (≈ 6.16 to 49.2 µM).
Regarding `CCCN1C[C@H](C)C[C@@](C)(OC)[C@H](O[C@@H]2O[C@H](C)C[C@H](N(C)C)[C@H]2O)[C@@H](C)C(=O)C(C)(C)C(=O)OC[C@H]1[C@H]1C[C@H](N(C)CC(C)C)C1` [Compound 60, (3R,6R,8R,9R,10R)-9-(((2S,3R,4S,6R)-4-(dimethylamino)-3-hydroxy-6-methyltetrahydro-2H-pyran-2-yl)oxy)-3-((1r,3R)-3-(isobutyl(methyl)amino)cyclobutyl)-8-methoxy-6,8,10,12,12-pentamethyl-4-propyl-1-oxa-4-azacyclotridecane-11,13-dione], the minimum inhibitory concentration (MIC) in experiment [1] was > 32 µg/mL; in experiment [2] it was > 32 µg/mL; in experiment [3] it was 4 to 32 µg/mL (≈ 5.99 to 47.9 µM); in experiment [4], < 4 µg/mL; in experiment [5], 4 to 32 µg/mL (≈ 5.99 to 47.9 µM); in experiment [6], 4 to 32 µg/mL (≈ 5.99 to 47.9 µM).
Regarding `CO[C@]1(C)C[C@@H](C)CN(C)[C@H](C2CN(C(=O)[C@H]3CCN(C)C3)C2)COC(=O)C(C)(C)C(=O)[C@H](C)[C@H]1O[C@@H]1O[C@H](C)C[C@H](N(C)C)[C@H]1O` [Compound 168, (3R,6R,8R,9R,10R)-9-(((2S,3R,4S,6R)-4-(dimethylamino)-3-hydroxy-6-methyltetrahydro-2H-pyran-2-yl)oxy)-8-methoxy-4,6,8,10,12,12-hexamethyl-3-(1-((S)-1-methylpyrrolidine-3-carbonyl)azetidin-3-yl)-1-oxa-4-azacyclotridecane-11,13-dione], the minimum inhibitory concentration (MIC) in experiment [1] is > 32 µg/mL; in experiment [2], > 32 µg/mL; in experiment [3] it was > 32 µg/mL; in experiment [4] it was < 4 µg/mL; in experiment [5], 4 to 32 µg/mL (≈ 6 to 48 µM); in experiment [6] it was 4 to 32 µg/mL (≈ 6 to 48 µM).
For `CO[C@]1(C)C[C@@H](C)CN(C)[C@H](C2CCN(C(C)C)CC2)COC(=O)C(C)(C)C(=O)[C@H](C)[C@H]1O[C@@H]1O[C@H](C)C[C@H](N(C)C)[C@H]1O` [Compound 151], the MIC in experiment [1] was > 32 µg/mL; in experiment [2], > 32 µg/mL; in experiment [3], < 4 µg/mL; in experiment [4], < 4 µg/mL; in experiment [5] it was < 4 µg/mL; in experiment [6], > 32 µg/mL.
For `CO[C@]1(C)C[C@@H](C)CN(C)[C@H](C2CN(C(=O)CCN(C)CC3CC3)C2)COC(=O)C(C)(C)C(=O)[C@H](C)[C@H]1O[C@@H]1O[C@H](C)C[C@H](N(C)C)[C@H]1O` [Compound 144, (3R,6R,8R,9R,10R)-3-(1-(3-((cyclopropylmethyl)(methyl)amino)propanoyl)azetidin-3-yl)-9-(((2S,3R,4S,6R)-4-(dimethylamino)-3-hydroxy-6-methyltetrahydro-2H-pyran-2-yl)oxy)-8-methoxy-4,6,8,10,12,12-hexamethyl-1-oxa-4-azacyclotridecane-11,13-dione], the minimal inhibitory concentration (MIC) in experiment [1] is > 32 µg/mL; in experiment [2] it was > 32 µg/mL; in experiment [3], > 32 µg/mL; in experiment [4], < 4 µg/mL; in experiment [5], 4 to 32 µg/mL (≈ 5.76 to 46 µM); in experiment [6] it was > 32 µg/mL.

By MIC is commonly meant the smallest concentration in the dilution series that meets the test's criterion for growth inhibition.

(Values after US20220177508A1, “C10-Cyclic Substituted 13-Membered Macrolides and Uses Thereof” (Zikani Therapeutics, Inc., priority 2018, published 2022).)
